This is an account of results in US8673904B2, “Epoxide inhibitors of cysteine proteases” (The Board of Trustees of the Leland Stanford Junior …, priority 2006, dated 2014).

In general, IC50 refers to the point on the concentration scale where inhibition reaches its midpoint.

One test has as its system cathepsin targets. Put plainly: Cathepsin targets of the compounds (Table 4). The following applies: cathepsin target(s) inhibited; General = all cathepsins. In kind it is biochemical, rat. The procedure: (§1) Also included in the table for comparison are known compounds JPMOEt and JPMOH (also known as JPM-565). See Meara and Rich, J. Med. Chem. 39:3357-3366, 1996; Bogyo et al, Chem. Biol. 7:27-38, 2000; and Joyce et al., Cancer Cell 5:443-453, 2004. The table also lists cathepsin targets and measured IC50 values for specific compounds. To determine these values, 1 mg/ml of rat liver lysate was incubated with a series of concentrations of the inhibitor for 20 minutes. Then, 1 ul of a radiolabled general cathepsin probe, DCG-04, was added to the solutions and incubated for 1 hour. After fixing and drying the gel, the residual enzyme activity was measured using ImageJ software. The measurements were then transferred to GraphPad Prism 4 to calculate the IC50 values.

The target of another test is T1, CatH (Rattus norvegicus, UniProt P00786).
T1 construct: from tissue; host or cells: rat liver lysate
T1 sequence (P00786 96-333): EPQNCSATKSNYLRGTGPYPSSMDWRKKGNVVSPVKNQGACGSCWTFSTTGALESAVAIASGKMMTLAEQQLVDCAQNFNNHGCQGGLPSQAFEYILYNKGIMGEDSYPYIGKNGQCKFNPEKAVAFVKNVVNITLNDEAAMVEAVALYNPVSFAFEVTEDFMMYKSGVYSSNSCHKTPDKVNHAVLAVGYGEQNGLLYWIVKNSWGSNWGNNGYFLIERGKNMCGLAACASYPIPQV
Put plainly: IC50 by competition with radiolabeled general cathepsin probe DCG-04 in rat liver lysate. The class given is biochemical. To be noted: 1 mg/ml rat liver lysate, inhibitor 20 minutes, then DCG-04 1 hour. Here is the method: as §1

The target in the next test is T2, CatZ (Cathepsin Z) (Rattus norvegicus, UniProt Q9R1T3).
T2 construct: from tissue; host or cells: rat liver lysate
The test is described as above. The class given is biochemical. To be noted: 1 mg/ml rat liver lysate, inhibitor 20 minutes, then DCG-04 1 hour. The procedure:
as §1

Another test deals with T3, CatC (Rattus norvegicus, UniProt P80067).
T3 construct: from tissue; host or cells: rat liver lysate
T3 sequence (P80067 25-462): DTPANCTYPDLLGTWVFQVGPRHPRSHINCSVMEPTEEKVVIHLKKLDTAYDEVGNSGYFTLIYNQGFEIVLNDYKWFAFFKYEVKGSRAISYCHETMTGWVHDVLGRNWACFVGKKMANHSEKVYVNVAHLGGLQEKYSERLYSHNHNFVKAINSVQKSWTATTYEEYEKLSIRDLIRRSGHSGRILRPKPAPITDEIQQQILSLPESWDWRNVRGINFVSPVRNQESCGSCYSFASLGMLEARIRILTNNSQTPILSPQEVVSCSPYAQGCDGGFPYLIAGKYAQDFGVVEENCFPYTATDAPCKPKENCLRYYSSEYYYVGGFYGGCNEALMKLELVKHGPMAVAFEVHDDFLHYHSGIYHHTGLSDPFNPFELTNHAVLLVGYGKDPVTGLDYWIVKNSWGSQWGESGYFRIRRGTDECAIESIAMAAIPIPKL
The description is as above. In kind it is biochemical. The following applies: 1 mg/ml rat liver lysate, inhibitor 20 minutes, then DCG-04 1 hour. The procedure: as §1

A further test addresses T4, CatB (Rattus norvegicus, UniProt P00787).
T4 construct: from tissue; host or cells: rat liver lysate / homogenate
Described as above. To be noted: 1 mg/ml rat liver lysate, inhibitor 20 minutes, then DCG-04 1 hour. In kind it is biochemical. Here is the method:
as §1

For the next test, the system named is other cathepsin targets. Put plainly: Competition/profiling in total rat liver extracts, 125I-labeled JPM-OEt labeling. The class given is biochemical. To be noted: FIG. 2, at concentrations as high as 50 micromolar. The procedure:
(§2) The library compounds all contained a tyrosine residue at the R3 position. They contained either a leucine residue (top and middle panels) or a 4-methylphenylalanine residue (bottom panel) at the A2 position. The amine at R1 is indicated above each panel, with numbering as defined in Table 1. Samples were analyzed by SDS-PAGE followed by autoradiography. Controls (C) are shown where DMSO was added in place of the inhibitor. The parent compounds JPM-OEt (Et) and JPM-565 (OH) are also included as positive controls. Note the loss of reactivity for all (2R,3R) compounds and the change in specificity of JPM analogs in which the (2R,3R) (middle panel—OH and Et) is used in place of the (2S,3S) (top panel—OH and Et) epoxides.
(§3) Joyce et al., Cancer Cell 5:443-453, 2004.
(§4) FIGS. 3 and 4 show additional competition assays with other compounds of the invention at various concentrations. The compounds were added to total rat liver extracts at the indicated concentrations, as described above, and the mixtures were subsequently treated with ^125I-labeled JPM-OEt to label proteins with residual activity. The in vivo pharmacokinetic properties, potency, and selectivity of some of these compounds are further described in Sadaghiani et al., Chem. Biol. 14:499-511, 2007, which is incorporated herein by reference in its entirety.

Another test deals with T5, cathepsin B (Rattus norvegicus, UniProt P00787).
T5 construct: from tissue; host or cells: rat liver lysate / homogenate
The test is described as follows: Competition in rat liver homogenates, 125I-labeled JPM-OEt labeling. The class given is biochemical. To be noted: FIG. 2, rat liver homogenates. The procedure:
as §2, §3, §4

The next test concerns RIP-Tag cancer model. To be noted: Joyce et al., Cancer Cell 5:443-453, 2004; cited from earlier work.

T2 sequence (Q9R1T3 64-306): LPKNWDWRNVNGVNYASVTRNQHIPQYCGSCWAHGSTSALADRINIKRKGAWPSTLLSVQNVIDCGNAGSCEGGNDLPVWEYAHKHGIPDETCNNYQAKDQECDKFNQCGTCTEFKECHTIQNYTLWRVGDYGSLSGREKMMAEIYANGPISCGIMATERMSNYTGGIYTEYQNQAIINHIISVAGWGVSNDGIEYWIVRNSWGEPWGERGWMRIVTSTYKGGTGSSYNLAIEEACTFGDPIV
T4 sequence (P00787 80-333): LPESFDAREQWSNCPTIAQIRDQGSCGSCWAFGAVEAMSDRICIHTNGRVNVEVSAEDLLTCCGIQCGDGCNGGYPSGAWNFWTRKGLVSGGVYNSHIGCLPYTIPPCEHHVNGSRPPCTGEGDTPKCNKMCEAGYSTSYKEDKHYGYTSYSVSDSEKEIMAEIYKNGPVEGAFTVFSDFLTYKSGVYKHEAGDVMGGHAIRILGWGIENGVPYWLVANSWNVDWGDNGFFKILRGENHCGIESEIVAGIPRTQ
T5 sequence (P00787 80-333): as above

As for `Cc1ccc(C[C@H](NC(=O)C2O[C@H]2C(=O)O)C(=O)N[C@@H](Cc2ccc(O)cc2)C(N)=O)cc1` (stereo partly shown) [Compound 76], the Target entry in the test with cathepsin targets was “Cat Z”. Besides, the IC50 on CatH is greater than 25000 nM; at CatZ (Cathepsin Z), 200 nM; at CatC, greater than 25000 nM; on CatB it was 6800 nM.
Regarding `CC(C)C[C@H](NC(=O)[C@H]1O[C@@H]1C(=O)NCCc1ccc(O)cc1)C(=O)NCCc1ccccn1` [Compound 63], the Target result with cathepsin targets is listed as “Cat B & Z”. The IC50 on CatH was greater than 10000 nM; on CatZ (Cathepsin Z) it was greater than 10000 nM; on CatC, greater than 10000 nM; at CatB, 310 nM.
With `CC(C)C[C@H](NC(=O)C1OC1C(=O)NCCc1ccc(O)cc1)C(=O)N[C@@H](Cc1ccc(O)cc1)C(N)=O` (single isomer, unassigned) [Compound 46], in the test on other cathepsin targets, the “activity against other cathepsin targets” value is “little or no activity against other cathepsin targets”. Moreover, in the test with cathepsin targets, the Target entry is listed as “Cat B”. In addition, on cathepsin B, the “potency for cathepsin B compared to parent compound JPM-565” value was “retain similar potency for cathepsin B compared to parent compound JPM-565”. Besides, the IC50 on CatH is greater than 50000 nM; on CatZ (Cathepsin Z), greater than 10000 nM; on CatC, greater than 50000 nM; at CatB, 10 nM.
With `CC(C)C[C@H](NC(=O)C1OC1C(=O)NCCc1ccc(O)cc1)C(=O)N[C@@H](Cc1ccc(O)cc1)C(N)=O` (stereo partly shown) [Compound 25], the Target result with cathepsin targets was “Cat B”. The IC50 on CatH was 21000 nM; on CatZ (Cathepsin Z), greater than 10000 nM; at CatC, 11000 nM; at CatB, 20 nM.
On to `CC(C)C[C@H](NC(=O)[C@H]1O[C@@H]1C(=O)NCCc1ccc(O)cc1)C(=O)NCc1cccc2ccccc12` [Compound 66], for which, in the test on cathepsin targets, the Target entry is “General”. In addition, the IC50 at CatH was 6200 nM; on CatZ (Cathepsin Z) it was 800 nM; at CatC, 5690 nM; at CatB, 320 nM.
With `CC(C)C[C@H](NC(=O)C1OC1C(=O)O)C(=O)N[C@@H](Cc1ccc(O)cc1)C(N)=O` (stereo partly shown) [Compound 60], the Target entry with cathepsin targets was “Cat B & Z”. The IC50 on CatH is greater than 25000 nM; at CatZ (Cathepsin Z), 100 nM; on CatC, greater than 25000 nM; at CatB, 400 nM.
Regarding `Cc1ccc(C[C@H](NC(=O)[C@H]2OC2C(=O)NCC(=O)O)C(=O)N[C@@H](Cc2ccc(O)cc2)C(N)=O)cc1` (stereo partly shown) [Compound 16], the Target result with cathepsin targets is on record as “Cat Z^1”. Also, the concentration for half-maximal inhibition (IC50) was greater than 10000 nM at CatH, 100 nM on CatZ (Cathepsin Z) and greater than 10000 nM at CatC.
As to `CC(C)C[C@H](NC(=O)C1O[C@H]1C(=O)NCCCO)C(=O)N[C@@H](Cc1ccc(O)cc1)C(N)=O` (stereo partly shown) [Compound 52], in the test on other cathepsin targets, the “activity against other cathepsin targets” value is “little or no activity against other cathepsin targets”. In addition, the Target entry in the test on cathepsin targets is recorded as “Cat B”. Further, the “potency for cathepsin B compared to parent compound JPM-565” value on cathepsin B is listed as “retain similar potency for cathepsin B compared to parent compound JPM-565”. Besides, the concentration for half-maximal inhibition (IC50) at CatH is greater than 50000 nM; at CatZ (Cathepsin Z) it was 1800 nM; on CatC, greater than 50000 nM; on CatB, 50 nM.
As for `CC(C)C[C@H](NC(=O)C1OC1C(=O)NCCCO)C(=O)N[C@@H](Cc1ccc(O)cc1)C(N)=O` (stereo partly shown) [Compound 31], in the test on cathepsin targets, the Target entry was “Cat B”. For the same compound, the half-maximal inhibitory concentration (IC50) worked out at 5450 nM at CatH, 1100 nM on CatZ (Cathepsin Z), 11000 nM at CatC and 10 nM at CatB.
In the case of `CCC[C@H](NC(=O)C1O[C@H]1C(=O)NCC(=O)O)C(=O)N[C@@H](Cc1ccc(O)cc1)C(N)=O` (stereo partly shown) [Compound 78], the Target entry in the test on cathepsin targets is “Cat B”. In addition, the IC50 on CatH is greater than 10000 nM; on CatZ (Cathepsin Z) it was 1000 nM; at CatC it was greater than 10000 nM; on CatB it was 280 nM.
Consider `NC(=O)[C@H](Cc1ccc(O)cc1)NC(=O)[C@H](CC1CCCCC1)NC(=O)C1OC1C(=O)O` (stereo partly shown) [Compound 74], for which, in the test with cathepsin targets, the Target result is recorded as “Cat B & Z”. Also, the IC50 was greater than 25000 nM on CatH, 300 nM at CatZ (Cathepsin Z), greater than 25000 nM on CatC and 1950 nM at CatB.
Regarding `CC(C)C[C@H](NC(=O)[C@H]1O[C@@H]1C(=O)O)C(=O)NCCc1ccc(O)cc1` [JPMOH, reference compound], the Target entry in the test with cathepsin targets was “General”. Besides, in the test on RIP-Tag cancer model, the “efficacy in the RIP-Tag cancer model” value was “shown to have efficacy in the RIP-Tag cancer model”. Moreover, the concentration for half-maximal inhibition (IC50) at CatH came out at 580 nM; on CatZ (Cathepsin Z), 100 nM; on CatC, 1000 nM; at CatB it was 400 nM.
`CCC[C@H](NC(=O)C1O[C@@H]1C(=O)O)C(=O)N[C@@H](Cc1ccc(O)cc1)C(N)=O` (stereo partly shown) [Compound 77]: in the test on cathepsin targets, the Target result is on record as “General”. In addition, the IC50 on CatH came out at 740 nM; at CatZ (Cathepsin Z), 100 nM; on CatC it was 450 nM; at CatB, 30 nM.
The corresponding values for `CCC[C@H](NC(=O)C1O[C@@H]1C(=O)NCC(=O)O)C(=O)N[C@@H](Cc1ccc(O)cc1)C(N)=O` (stereo partly shown) [Compound 79] are “Cat B”, 5850 nM, 1300 nM, 19300 nM and 190 nM.
The corresponding values for `CCC[C@H](NC(=O)C1O[C@H]1C(=O)O)C(=O)N[C@@H](Cc1ccc(O)cc1)C(N)=O` (stereo partly shown) [Compound 75] are “Cat B & Z”, greater than 25000 nM, 200 nM, greater than 25000 nM and 270 nM.
The corresponding values for `CCOC(=O)[C@H]1O[C@@H]1C(=O)N[C@@H](CC(C)C)C(=O)NCCc1ccc(O)cc1` [JPMOEt, reference compound] are “General”, 4650 nM, 200 nM, 8900 nM and 40 nM.
Regarding `CC(C)C[C@H](NC(=O)[C@H]1OC1C(=O)O)C(=O)N[C@@H](Cc1ccc(O)cc1)C(N)=O` (stereo partly shown) [Compound 40], the Target result in the test with cathepsin targets is given as “General”. Also, the IC50 on CatH is 5450 nM; on CatZ (Cathepsin Z), 100 nM; at CatC, 200 nM; on CatB, 20 nM.
Regarding `Cc1ccc(C[C@H](NC(=O)C2O[C@H]2C(=O)NCC(=O)O)C(=O)N[C@@H](Cc2ccc(O)cc2)C(N)=O)cc1` (stereo partly shown) [Compound 80], the Target entry in the test on cathepsin targets is “Cat B & Z”. Further, the IC50 on CatH was greater than 10000 nM; on CatZ (Cathepsin Z) it was 800 nM; at CatC it was greater than 10000 nM; on CatB it was greater than 10000 nM.
